From US20050054103A1, “Expansion of renewable stem cell populations using modulators of PI 3-kinase” (priority 2003, published 2005) come the findings set out here.

Series [1] deals with CD34+ cells. Put plainly: Ex vivo expansion of CD34+ cell enriched cultures with RXR, RAR and RAR+RXR antagonists (CFU, CD34+ counts, FACS). The series is classed as cell-based, human. The note with it: 10^−7 M, with TPO, FLT3, IL-6 and IL-3; 3 and 5 weeks. The method, then: Cultures were prepared and maintained as described above.
, the percentage of cells bearing the CD34^+ marker (considered to be mostly committed progenitor cells), as well as the percentage of cells bearing the markers CD34^+/CD38^− and CD34^+Lin^− […]

Series [2] has as its system Mouse erythroleukemic cells (MEL). Description: HMBA-induced differentiation of erythroleukemic cells. The series is classed as cell-based. The note with it: day 3. As to the method: Mouse erythroleukemic cells (MEL): MEL cells are erythroblast like cells. Following treatment with several chemicals (differentiation inducers) the cells undergo erythroid differentiation and accumulate hemoglobin. […] At day 3 of the culture, the total number of cells and the percentage of hemoglobin-containing cells were determined (Table 7).
On day 3, total cell number and hemoglobin containing (benzidine positive) cells were determined.

Series [3] deals with Boston fern Callus tissue cultures. Put plainly: Intracellular copper content of plant callus tissues incubated with TEPA. It counts as cell-based. The conditions noted are these: two days. As to the method:
Plant cells: The effect of TEPA on the intracellular copper content of plant cells was determined as follows. Boston fern Callus tissue cultures were obtained from a commercial plant tissue culture production facility (Biological Industries, Kibbutz Bet Ha'Emek, Israel) and incubated with different concentrations of TEPA in the culture medium for two days at room temperature. After three washes with PBS the tissues were suspended in 0.03 M ultra pure nitric acid and homogenized with a high shear mixer (polytron, Kinematica, Switzerland) for 3 minutes to disrupt the cells and release intracellular copper. Cell samples were vortexed before transferring to a vial autosampler and analyzed in duplicate by a Perkin Elmer graphite furnace atomic absorption spectrophotometer at a wavelength of 324.7 nm. The samples were analyzed against copper standard solution prepared from a commercial stock solution that was diluted with 0.03 M ultra pure nitric acid.

Series [4] has as its system lethally irradiated Balb/c X C57B1/6 F1 mice. Description: Hematopoietic reconstitution of lethally irradiated mice, fresh vs. ex-vivo expanded cells. The series is classed as in vivo. As to the method:
Hematopoietic reconstitution of lethally irradiated mice—fresh vs. ex-vivo expanded cells: Three month old female Balb/c X C57B1/6 F1 mice were lethally irradiated (1000 rad) and transplanted one day later with 1×10^5 fresh bone marrow cells or the yield of 1×10^5 bone marrow cells expanded ex-vivo either with or without TEPA for 3 to 5 weeks, as detailed in Table 12. Peripheral blood WBC counts were performed on weekly basis.

The mark [5] stands for this setting: Exp. I, 3 weeks ex-vivo with TEPA + cytokines, day 13.
[6] abbreviates: Exp. I, 3 weeks ex-vivo with TEPA + cytokines, day 19.
Setting [7] is: Exp. II, 3 weeks ex-vivo with TEPA + cytokines, day 11.
Where [8] appears, read: Exp. II, 3 weeks ex-vivo with TEPA + cytokines, day 29.
Where [9] appears, read: Exp. III, 5 weeks ex-vivo with TEPA + cytokines, day 6.
Setting [10] is: Exp. III, 5 weeks ex-vivo with TEPA + cytokines, day 11.

The structures appear in SMILES notation.

With `CCc1ccc(C2=CC(C)(C)Sc3ccc(C#Cc4ccc(C(=O)O)cc4)cc32)cc1` [AGN 194310], the “activity on ex vivo expansion of stem/progenitor cells (CFU, CD34+, CD34+/38−, CD34+/Lin−)” value in series [1] is “moderate activity”.

With `NCCNCCNCCNCCN` [TEPA, tetraethylenepentamine], the “Benzidine Positive Cells (%)” value was 24% in series [2] (HMBA + chelator 5 μM), 16% in series [2] (HMBA + chelator 10 μM) and 16% in series [2] (HMBA + chelator 20 μM). Also, the “Cells/ml (×10^4)” value in series [2] (HMBA + chelator 5 μM) was 35 ×10^4; in series [2] (HMBA + chelator 10 μM) it was 35 ×10^4; in series [2] (HMBA + chelator 20 μM) it was 47 ×10^4. Further, the “Average Intracellular Copper Content (ppb)” value was 13.85 +/− 4.09 ppb in series [3] (TEPA 10 μM in medium), 8.45 +/− 0.05 ppb in series [3] (TEPA 50 μM in medium) and 7.1 +/− 2.12 ppb in series [3] (TEPA 100 μM in medium). Also, the Survival in series [4] (setting [5]), in series [4] (setting [6]), in series [4] (setting [7]), in series [4] (setting [8]), in series [4] (setting [9]) and in series [4] (setting [10]) was 5/5 each time. The Survival in series [4] (Exp. III, 5 weeks ex-vivo with TEPA + cytokines, day 19) is listed as 4/5; in series [4] (Exp. III, 5 weeks ex-vivo with TEPA + cytokines, day 27) it was 4/5. Besides, the “WBC × 10^6/ml” value is reported as 0.7 × 10^6/ml in series [4] (setting [5]); 1.5 × 10^6/ml in series [4] (setting [6]); 0.92 × 10^6/ml in series [4] (setting [7]); 10.8 × 10^6/ml in series [4] (setting [8]); 0.69 × 10^6/ml in series [4] (setting [9]); 1.27 × 10^6/ml in series [4] (setting [10]). Also, the “WBC recovery vs fresh cells or cells expanded without TEPA” value in series [4] (bone marrow cells expanded ex-vivo in the presence of TEPA) is reported as “faster”.
